Where two headings read alike, the source gives them in different places.

The values below come from patent US20100125059A1, “1-BIARYLAZETIDINONE DERIVATIVE” (Teijin Pharma Limited, priority 2007, published 2010).

Experiment [1] relates to Caco-2 cells. In words: Cholesterol absorption inhibition assay (in vitro), [14C] cholesterol mixed micelles. The class given is cell-based. As to conditions: Homo sapiens, 24 hours, read-out: cholesterol absorption inhibitory activity; for inhibition at 12.5 µM: concentration of 12.5 μM; for inhibition at 10 µM: concentration of 10 μM. As to the method:
This assay measures cholesterol absorption inhibitory activity by adding mixed micelles containing [^14C] cholesterol to cells and measuring cholesterol taken in the cells as oleic acid cholesteryl ester. The assay is conducted after Caco-2 cells are seeded on multi-well plates and cultured (culture medium: DMEM containing 10% fetal bovine serum, 1% non-essential amino acids, 1% penicillin, and 1% streptomycin) for 2 weeks. To each well, the micelle solution (in an amount required to provide the following final concentrations: 600 μM of sodium oleate, 50 μM of phosphatidyl choline, 5 mM of sodium taurocholate, 2.5 μM of cholesterol, and 2.5 μM of [^14C] cholesterol) and a test compound solution (in an amount required to provide the final concentration of 0.5 to 25 μM) or a solvent as a control are added, and incubation is started at 37° C. 24 hours later, the culture medium is removed, and the lipid component is extracted with hexane/2-propanol (3:2, v/v) and applied onto thin-layer silica gel plates. After drying, each plate is eluted with a mixture of hexane, diethyl ether, and acetic acid in a ratio of 83:16:1. The plates are photoexposed on imaging plates and analyzed using BAS-2500 (FUJIFILM). The amounts of light exposure of the areas corresponding to the cholesteryl ester are calculated. Background is measured using a blank space of the plate. Inhibition rates are calculated using values obtained by subtracting the background values from both values of the control and the test sample, respectively, in accordance with the following equation. A test value is calculated as a percentage (%) with respect to the control.
In the Equation 1, A is the control group, BG is a background, and B is the test compound.
The following results were obtained from the measurement by this method on cholesterol absorption inhibitory activity of the compounds of the present invention. The following results were obtained by the evaluation using concentrations of 10 μM and/or 12.5 μM.

Experiment [2] has as its system hamsters fed a high cholesterol diet. Description: Measurement of lipid lowering effect in hamsters fed a high cholesterol diet. Conditions: Mesocricetus auratus, po, 168 h, gavage once daily, 7 days. The class given is in vivo, Male Golden Syrian hamsters. The method in brief: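 Male Golden Syrian hamsters (6/group) on 0.5% cholesterol diet, dosed by gavage once daily in corn oil at 0.01 to 10 mg/kg; serum and liver sampled 4 h after last dose. TC, TG and LDL-C measured enzymatically; effects expressed as % suppression versus control and normal-diet groups.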

The mark [3] stands for this setting: read-out: liver TC lowering effect (suppression rate of an increase in liver TC concentration).
The mark [4] stands for this setting: read-out: serum LDL-C lowering effect (suppression rate of an increase in serum LDL-C concentration).
The mark [5] stands for this setting: read-out: serum TG lowering effect (serum TG lowering rate).
[6] abbreviates: read-out: serum TC lowering effect (suppression rate of an increase in serum TC concentration).

In the case of `O=C1[C@H](SC[C@H](O)c2ccc(Cl)cc2)[C@@H](c2ccc(O)cc2)N1c1ccc(-c2ccc(Cl)nc2)cc1` [Example 94, (3R,4R)-3-[(2R)-2-(4-chlorophenyl)-2-hydroxyethylthio]-1-[4-(6-chloropyridin-3-yl)phenyl]-4-(4-hydroxyphenyl)azetidin-2-one], the inhibition at 12.5 µM in experiment [1] was at least 60%. Moreover, the inhibition in vivo at 0.1 mg/kg in experiment [2] (setting [3]) is at least 50%.

In the case of `O=C1[C@H](SC[C@H](O)c2ccc(Cl)cc2)[C@@H](c2ccc(O)cc2)N1c1ccc(-c2cncc(C(F)(F)F)c2)cc1` [Example 86, (3R,4R)-3-[(2R)-2-(4-chlorophenyl)-2-hydroxyethylthio]-4-(4-hydroxyphenyl)-1-[4-(5-trifluoromethylpyridin-3-yl)phenyl]azetidin-2-one], the inhibition at 12.5 µM in experiment [1] was at least 60%. Further, the inhibition in vivo at 0.01 mg/kg in experiment [2] (setting [4]) was at least 30%.

Consider `O=C1[C@H](SC[C@H](O)c2ccc(F)cc2)[C@@H](c2ccc(O)cc2)N1c1ccc(-c2ncc(F)cc2F)cc1` [Example 34, (3R,4R)-3-[(2R)-2-(4-fluorophenyl)-2-hydroxyethylthio]-1-[4-(3,5-difluoropyridin-2-yl)phenyl]-4-(4-hydroxyphenyl)azetidin-2-one], for which the inhibition at 10 µM in experiment [1] is at least 50%. Further, the inhibition in vivo at 0.1 mg/kg in experiment [2] (setting [5]) was at least 20%.

Take `CC(=O)c1cncc(-c2ccc(N3C(=O)[C@H](SC[C@H](O)c4ccc(F)cc4)[C@H]3c3ccc(O)cc3)cc2)c1` [Example 48, (3R,4R)-3-[(2R)-2-(4-fluorophenyl)-2-hydroxyethylthio]-1-[4-(5-acetylpyridin-3-yl)phenyl]-4-(4-hydroxyphenyl)azetidin-2-one]: in experiment [1], the inhibition at 10 µM was at least 50% and the inhibition at 12.5 µM is at least 60%. Besides, the inhibition in vivo at 0.1 mg/kg in experiment [2] (setting [5]) was at least 20%.

With `Cc1ccc(-c2ccc(N3C(=O)[C@H](SC[C@H](O)c4ccc(Cl)cc4)[C@H]3c3ccc(O)cc3)cc2)cn1` [Example 91, (3R,4R)-3-[(2R)-2-(4-chlorophenyl)-2-hydroxyethylthio]-4-(4-hydroxyphenyl)-1-[4-(6-methylpyridin-3-yl)phenyl]azetidin-2-one], the inhibition at 12.5 µM in experiment [1] is at least 60%. For the same compound, the inhibition in vivo at 0.01 mg/kg in experiment [2] (setting [6]) was at least 30%.

Consider `COc1cc(N2C(=O)[C@H](SC[C@H](O)c3ccc(F)cc3)[C@H]2c2ccc(O)cc2)ccc1-c1cccnc1` [Example 52, (3R,4R)-3-[(2R)-2-(4-fluorophenyl)-2-hydroxyethylthio]-4-(4-hydroxyphenyl)-1-[3-methoxy-4-(pyridin-3-yl)phenyl]azetidin-2-one], for which the inhibition at 10 µM in experiment [1] was at least 50%. Moreover, the inhibition in vivo at 0.1 mg/kg in experiment [2] (setting [5]) is at least 20%.

Turning to `COc1cncc(-c2ccc(N3C(=O)[C@H](SC[C@H](O)c4ccc(F)cc4)[C@H]3c3ccc(O)cc3)cc2)c1` [Example 50, (3R,4R)-3-[(2R)-2-(4-fluorophenyl)-2-hydroxyethylthio]-4-(4-hydroxyphenyl)-1-[4-(5-methoxypyridin-3-yl)phenyl]azetidin-2-one], the inhibition at 10 µM in experiment [1] is at least 50%. Also, the inhibition in vivo at 0.1 mg/kg in experiment [2] (setting [6]) is at least 50%; in experiment [2] (setting [5]), at least 20%.

As for `O=C1[C@H](SC[C@H](O)c2ccc(F)cc2)[C@@H](c2ccc(O)cc2)N1c1ccc(-c2cncc(Cl)c2)cc1` [Example 56, (3R,4R)-3-[(2R)-2-(4-fluorophenyl)-2-hydroxyethylthio]-1-[4-(5-chloropyridin-3-yl)phenyl]-4-(4-hydroxyphenyl)azetidin-2-one], in experiment [1], the inhibition at 10 µM is at least 50%. For the same compound, the inhibition in vivo at 0.01 mg/kg in experiment [2] (setting [3]), in experiment [2] (setting [4]) and in experiment [2] (setting [6]) was at least 30% each time. Besides, in experiment [2] (setting [3]), the inhibition in vivo at 0.1 mg/kg was at least 50%.

As for `Cc1ccc([C@@H](O)CS[C@H]2C(=O)N(c3ccc(-c4cccnc4)cc3)[C@@H]2c2ccc(O)cc2)cc1` [Example 45, (3R,4R)-3-[(2R)-2-hydroxy-2-(4-methylphenyl)ethylthio]-4-(4-hydroxyphenyl)-1-[4-(pyridin-3-yl)phenyl]azetidin-2-one], in experiment [1], the inhibition at 10 µM was at least 50% and the inhibition at 12.5 µM was at least 60%. Moreover, the inhibition in vivo at 0.1 mg/kg in experiment [2] (setting [4]) is at least 50%. Moreover, the inhibition in vivo at 0.1 mg/kg in experiment [2] (setting [6]) is at least 50%.

`O=C1[C@H](SCCc2ccc(F)cc2)[C@@H](c2ccc(O)cc2)N1c1ccc(-c2cccnc2)cc1` [Example 5, (3R,4R)-3-[2-(4-fluorophenyl)ethylthio]-4-(4-hydroxyphenyl)-1-[4-(pyridin-3-yl)phenyl]azetidin-2-one]: in experiment [1], the inhibition at 10 µM is at least 50% and the inhibition at 12.5 µM is at least 60%. Moreover, the inhibition in vivo at 0.1 mg/kg in experiment [2] (setting [5]) is at least 20%.

Consider `Cc1cncc(-c2ccc(N3C(=O)[C@H](SC[C@H](O)c4ccc(Cl)cc4)[C@H]3c3ccc(O)cc3)cc2)c1` [Example 85, (3R,4R)-3-[(2R)-2-(4-chlorophenyl)-2-hydroxyethylthio]-4-(4-hydroxyphenyl)-1-[4-(5-methylpyridin-3-yl)phenyl]azetidin-2-one], for which the inhibition at 12.5 µM in experiment [1] was at least 60%. Moreover, the inhibition in vivo at 0.01 mg/kg in experiment [2] (setting [4]) and in experiment [2] (setting [6]) was at least 30% each time.

In the case of `O=C1[C@H](SC[C@H](O)c2ccc(F)cc2)[C@@H](c2ccc(O)cc2)N1c1ccc(-c2ccncc2Cl)cc1` [Example 12, (3R,4R)-3-[(2R)-2-(4-fluorophenyl)-2-hydroxyethylthio]-1-[4-(3-chloropyridin-4-yl)phenyl]-4-(4-hydroxyphenyl)azetidin-2-one], the inhibition at 10 µM in experiment [1] was at least 50%. In addition, the inhibition in vivo at 0.1 mg/kg in experiment [2] (setting [4]) is at least 50%.

Turning to `O=C1[C@H](SC[C@H](O)c2ccc(F)cc2Cl)[C@@H](c2ccc(O)cc2)N1c1ccc(-c2cccnc2)cc1` [Example 90, (3R,4R)-3-[(2R)-2-(2-chloro-4-fluorophenyl)-2-hydroxyethylthio]-4-(4-hydroxyphenyl)-1-[4-(pyridin-3-yl)phenyl]azetidin-2-one], the inhibition at 12.5 µM in experiment [1] was at least 60%. Besides, the inhibition in vivo at 0.1 mg/kg in experiment [2] (setting [4]) and in experiment [2] (setting [6]) was at least 50% in each case.

Turning to `COc1ccc(-c2ccc(N3C(=O)[C@H](SC[C@H](O)c4ccc(F)cc4)[C@H]3c3ccc(O)cc3)cc2)cn1` [Example 14, (3R,4R)-3-[(2R)-2-(4-fluorophenyl)-2-hydroxyethylthio]-4-(4-hydroxyphenyl)-1-[4-(6-methoxypyridin-3-yl)phenyl]azetidin-2-one], in experiment [1], the inhibition at 10 µM was at least 50%. For the same compound, in experiment [2] (setting [5]), the inhibition in vivo at 0.1 mg/kg is at least 20%.

Turning to `COc1ccncc1-c1ccc(N2C(=O)[C@H](SC[C@H](O)c3ccc(F)cc3)[C@H]2c2ccc(O)cc2)cc1` [Example 16, (3R,4R)-3-[(2R)-2-(4-fluorophenyl)-2-hydroxyethylthio]-4-(4-hydroxyphenyl)-1-[4-(4-methoxypyridin-3-yl)phenyl]azetidin-2-one], in experiment [1], the inhibition at 10 µM is at least 50% and the inhibition at 12.5 µM is at least 60%. In experiment [2] (setting [3]), the inhibition in vivo at 0.01 mg/kg is at least 30%. The inhibition in vivo at 0.1 mg/kg in experiment [2] (setting [6]) was at least 50%.

For `O=C1[C@H](SC[C@H](O)c2ccc(Cl)c(Cl)c2)[C@@H](c2ccc(O)cc2)N1c1ccc(-c2cccnc2)cc1` [Example 28, (3R,4R)-3-[(2R)-2-(3,4-dichlorophenyl)-2-hydroxyethylthio]-4-(4-hydroxyphenyl)-1-[4-(pyridin-3-yl)phenyl]azetidin-2-one], in experiment [1], the inhibition at 10 µM was at least 50%. Further, the inhibition in vivo at 0.1 mg/kg in experiment [2] (setting [3]) and in experiment [2] (setting [6]) was at least 50% throughout.
